Reference: US5990078A, “Means of increasing estrogen receptor levels in neural tissue” (The Trustees of Columbia University in the City of New York, priority 1996, dated 1999)
“Also recorded” adds a separate entry of the source.

Columns and labels:
p75^NGFR mRNA [1] = test: Northern blot analysis of p75NGFR mRNA in PC12 cells; assay type: cell-based, rat; details: NGF-treated PC12 cells
Method: PC12 cells were cultured on collagen-coated coverslips or tissue culture dishes in phenol red-free RPMI 1640 (Gibco BRL) nutrient medium supplemented with 10% (heat-inactivated) gelded (steroid-deficient) horse serum (JRH Biological), according to a modification of standard procedures. In these experiments, fetal calf serum, which contains physiologic levels of estrogen, (32 pg/ml) was not used.
Total RNA, prepared by a modification of the Chomczynski and Sacchi method, was size-fractionated (10-20 μg/lane) on a 1.2% agarose-18% formaldehyde gel and capillary-transferred to nylon membrane (Hybond-N; Amersham). Filters were prehybridized (4-18 h) and hybridized (36-40 h) at 42° C. in 50% Formamide, 3× SSC, 0.1M Tris, 5× Denhardt's and 10% Dextran Sulfate. Probes were labeled with [α-^32 P]-dCTP by the random priming procedure (Random Priming kit, Boehringer Mannheim). trkA mRNA was identified by hybridization with pDM97, a 450 bp trkA-specific probe corresponding to the extracellular and transmembrane domains of the trkA gene [67; gift of L. F. Parada, NCI-FCRDC]. p75^NGFR was probed by hybridization with p5b, a 2 Kb probe corresponding to the extracellular domain of the p75^NGFR gene. Blots were washed first in 0.2×SSC and 0.5% SDS briefly at room temperature and then for 2 h at 60° C., with frequent changes of wash buffer. Filters were then exposed to film (Kodak X-Omat) between intensifying screens and stored at -70° C. for 1-4 days before developing.
Using a standard densitometry package (Jandel Scientific), optical density measurements were obtained from X-ray film. trkA and p75^NGFR transcript densities were normalized to an internal control to account for variation in the amount of RNA loaded.
Total RNA was analyzed by Northern blot analyses, using ^32 P-labeled cDNA probes for trkA and p75^NGFR.

PC12 cells = test: Morphology / neurite differentiation of PC12 cells; assay type: cell-based, rat; details: estrogen exposure
ERKs 1 and 2 [2] = test: Tyrosine phosphorylation of ERKs 1 and 2 in cerebral cortical explants; assay type: cell-based; details: P2 cortical explants
Method: (§1) Estrogen and the neurotrophins have important roles in the developing and adult central nervous system (CNS). […] The hypothesis that estrogen/neurotrophin receptor co-expression leads to reciprocal regulation at the level of signal transduction, through cross-coupling of converging estrogen and neurotrophin signaling pathways whose end-points in the nucleus may be the very same genes was tested. Postnatal day 2 cerebral cortex was maintained as organotypic explants in roller tube culture for 7 days.

ERKs = test: In-gel kinase assay of ERKs with MBP as substrate, cortical explants; assay type: cell-based
Method: as §1

trk receptors = test: Tyrosine phosphorylation of the trk receptors, cortical explants; assay type: cell-based
Method: as §1

ERKs 1 and 2 [3] = test: ERK activation in PC12-E2 cells; assay type: cell-based
Excerpt: (§2) It has been previously reported that wild-type, differentiated PC12 pheochromocytoma cells express very low levels of estrogen receptors. Here it is reported that a PC12 cell variant, PC12-E2 (Wu, Bradshaw, J. Cell Physiol. 164:1995), is estrogen responsive and expresses high estrogen receptor level (≈50% of the levels observed in estrogen receptor over-expressing MCF-7 cells). Moreover, although tyrosine phosphorylation of the estrogen receptor appeared to be expressed constitutively, these cells responded to added estrogen. PC12-E2 responsiveness to estrogen was determined morphologically and by measuring estradiol-induced ERK activation. […] Preliminary co-precipitation experiments show an association between src and estrogen receptor, src with MEK (MAP Kinase/ERK-activating Kinase), and MEK with B-raf, MEK, which phosphorylates the ERKs on tyrosine residues, is known to exist as a complex consisting of at least hsp90 and B-raf.

ERK = ERK stimulation in wild-type, differentiated PC12 cells; assay type: cell-based
PC12-E2 cells = test: Morphological study of neurite growth in PC12-E2 cells; assay type: cell-based
Excerpt: as §2

trkA mRNA = details: adult female rat DRG neurons in vivo [90]; listed as estrogen; cited from earlier work
p75^NGFR mRNA [4] = details: adult female rat DRG neurons in vivo [90]; cited from earlier work
estrogen receptor mRNA [5] = test: Semiquantitative RT-PCR of estrogen receptor mRNA in cortical and basal forebrain explant cultures; assay type: cell-based, rat; details: cortical and basal forebrain explants, hrNGF 100 ng/mL
Excerpt: Time-pregnant rats (Sprague-Dawley) were obtained from Zivic (Miller, Pa.). Organotypic explant cultures were obtained from postnatal day (P) 2 rat brains (P1=day of birth) of both sexes. Brains were slice coronally into 360-μm thick sections using a brain slicer (Toran-Allerand, 1990). A total of four coronal sections from the periseptal region were isolated and dissected into four pairs of hemicoronal cortical [cingulate and neocortex, FIG. 6(a)] and basal forebrain [septum, nuclei of the diagonal band of Broca and ventral pallidum, FIG. 6(b)] sections. Hemicoronal explants were maintained in roller tube assemblies (Caeser et al., 1989; Gahwiler et al., 1991), on collagen coated coverslips for 8 days in vitro, in serum supplemented (25% gelded horse serum, JRH), steroid deficient and phenol red free medium containing 50% basal medium (Eagle's), 25% Hank's balanced salt solution (HBSS), and 0.65% glucose. […] Cultures were fed 3 times a week.
Estrogen receptor mRNA expression was assessed by semiquantitative RT-CPR, using RNA isolated from pooled cortical (two explants pooled/sample) and basal forebrain (four explants pooled/sample) cultures. PCR primers (gift of B. Schachter, Mount Sinai Hospital) were designed to amplify a 300 base pair (bp) sequence from the region coding for the ligand binding domain (Sohrabji et al., 1994b). […]

estrogen receptor mRNA [6] = test: Isotopic in situ hybridization of estrogen receptor mRNA in cortical explant cultures; assay type: cell-based, rat; details: cortical explants, hrNGF 100 ng/mL
Excerpt: (§3) Time-pregnant rats (Sprague-Dawley) were obtained from Zivic (Miller, Pa.). Organotypic explant cultures were obtained from postnatal day (P) 2 rat brains (P1=day of birth) of both sexes. Brains were slice coronally into 360-μm thick sections using a brain slicer (Toran-Allerand, 1990). A total of four coronal sections from the periseptal region were isolated and dissected into four pairs of hemicoronal cortical [cingulate and neocortex, FIG. 6(a)] and basal forebrain [septum, nuclei of the diagonal band of Broca and ventral pallidum, FIG. 6(b)] sections. […]
Estrogen receptor mRNA was detected in cerebral cortical cultures in using […] oligonucleotide probes complementary to a sequence within rat estrogen receptor mRNA coding for hormone binding domain (Miranda et al., 1993b, 1994; Miranda and Toran-Allerand, 1992; Toran-Allerand et al., 1992b). […] Isotopically (^35 S)-labeled hybrids were detected in whole explant cultures by desiccating the cultures and apposing them to autoradiographic film (Kodak X-omat). The intensity of mRNA expression was quantified as the density of film exposure over the explant divided by the density over background using a standard morphometrics package (Jandel Scientific).

estrogen receptor = molecular target: T1, estrogen receptor (Rattus norvegicus, UniProt P06211); test: Modified nuclear binding assay, basal forebrain explant cultures; assay type: cell-based; parameters: endogenous in cells; details: P2 rat basal forebrain explants, 8 days in vitro, hrNGF 100 ng/mL
T1 sequence (P06211 1-600): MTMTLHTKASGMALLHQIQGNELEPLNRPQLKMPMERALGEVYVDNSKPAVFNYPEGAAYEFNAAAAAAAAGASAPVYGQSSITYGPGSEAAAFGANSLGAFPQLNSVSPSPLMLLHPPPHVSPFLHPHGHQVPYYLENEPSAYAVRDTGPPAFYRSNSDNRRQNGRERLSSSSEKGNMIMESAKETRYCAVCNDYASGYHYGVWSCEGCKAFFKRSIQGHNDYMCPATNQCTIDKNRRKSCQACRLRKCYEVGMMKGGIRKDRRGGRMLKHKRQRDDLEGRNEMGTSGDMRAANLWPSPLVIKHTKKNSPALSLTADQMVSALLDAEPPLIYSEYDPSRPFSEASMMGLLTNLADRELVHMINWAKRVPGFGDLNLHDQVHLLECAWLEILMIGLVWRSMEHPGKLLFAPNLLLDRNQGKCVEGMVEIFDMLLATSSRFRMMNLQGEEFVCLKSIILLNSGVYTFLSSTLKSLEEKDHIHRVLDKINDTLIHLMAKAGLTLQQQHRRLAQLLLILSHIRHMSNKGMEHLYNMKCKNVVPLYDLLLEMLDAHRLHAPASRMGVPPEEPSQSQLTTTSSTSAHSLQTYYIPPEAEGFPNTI
Excerpt: as §3
Nuclear receptor binding sites were identified using previously published protocols (Sohrabji et al., 1994a,b) and were standardized for this experiment using both MCF-7 cells and hypothalamic tissue. […] Radioactivity was eluted from nuclear pellets with 95% ethanol (moxestrol is completely soluble in >50% ethanol) and the radioactivity counted in a liquid scintillation counter. […] Specific binding was determined as the difference between total binding and non-specific binding (in the presence of an unlabeled competing ligand) and the data expressed as femtomoles of specifically bound [^3 H] -moxestrol/mg DNA. […]

Row | Density of estrogen binding sites (estrogen receptor) | Molecule | p75NGFR mRNA level (p75^NGFR mRNA [1]; 1 day after estrogen treatment) | p75NGFR mRNA level (p75^NGFR mRNA [1]; 3 days of estrogen exposure) | p75NGFR mRNA level (p75^NGFR mRNA [1]; 3 days of estrogen exposure, 4320 min) | p75NGFR mRNA level (p75^NGFR mRNA [1]; 7 days of estrogen treatment) | Effect on morphology / neurite differentiation (PC12 cells) | Persistence of tyrosine phosphorylation of the ERKs (ERKs 1 and 2 [2]) | Time of maximal tyrosine phosphorylation of the ERKs (ERKs 1 and 2 [2]) [min] | Onset of tyrosine phosphorylation of the ERKs (ERKs 1 and 2 [2]; 24 hrs estrogen and neurotrophin deprivation) [min] | Activity of phosphorylated ERKs in phosphorylating MBP vs untreated controls (ERKs) | Tyrosine phosphorylation of the trk receptors (trk receptors) | Time to tyrosine phosphorylation of ERKs 1 and 2 (ERKs 1 and 2 [3]) [min] | Estradiol-induced ERK stimulation (ERK) | Neurite outgrowth (PC12-E2 cells) | Increase in trkA mRNA (trkA mRNA) | p75NGFR mRNA (p75^NGFR mRNA [4]) | Estrogen receptor mRNA (normalized to cyclophilin mRNA) vs control (estrogen receptor mRNA [5]) | Estrogen receptor mRNA, density of hybridization signal (estrogen receptor mRNA [6])
1 | – | C[C@]12CC[C@@H]3c4ccc(O)cc4CC[C@H]3[C@@H]1CC[C@@H]2O [estradiol, 17-β estradiol] | below basal levels | decreased by half | approximately 50 % of baseline | indistinguishable from basal levels; also recorded: no different from basal levels | no readily visible effects; also recorded: did not appear to influence visibly | at least 4 hrs. | 30 | ≤ 5 | much more active | induced tyrosine phosphorylation | ≤ 15 | no estradiol-induced ERK stimulation was observed | little effect | two to three-fold | transient decrease | – | –
2 | did not significantly alter and not | hrNGF: human recombinant NGF (gift of Louis Burton, Genetech) | – | – | – | – | – | – | – | – | – | – | – | – | – | – | – | no different; also recorded: did not lead to an alteration | No alterations; also recorded: did not lead to an alteration
